Laboratory results from patent publication US20250154266A1, “ACTIVIN SIGNALING ACTIVITY” (The Johns Hopkins University, priority 2022, published 2025).

What was measured:
[1] = test system: Activin receptor-like kinase; conditions: Table I, cited from earlier work; for Function: reported function in words; for Target: target profile in words
[2] = test system: ALK1, ALK2, ALK3 and ALK6; conditions: in words; cited from earlier work
[3] = test system: ALK1, ALK2, BMPR1A, ALK4, TGFBR1, BMPR1B, and ALK7; conditions: in words; cited from earlier work
[4] = test system: SMAD phosphorylation in CD4+ T cells; assay: Western blot analysis of SMAD phosphorylation in CD4+ T cells; format: cell-based
Method: Since Activins have been reported to promote SMAD signaling in non-T cells (14), it was tested whether Activins signaling in T cells could have a similar effect. SMAD activity was assessed by western blot analysis of SMAD phosphorylation.

naive CD4+ T cells = assay: Foxp3 induction / Treg generation from naive CD4+ T cells; format: cell-based; conditions: for Foxp3 induction (Foxp3+ cells): single agent, TGF-β at suboptimal concentration, Activin A in the absence of TGF-β
Excerpt: Since […] mediated events are important during the up-regulation of Foxp3 and the generation of Tregs from naive CD4+ T cell precursors, it was investigated whether Activin A can drive the process. Without TGF-β, as expected, Foxp3 induction was minimal.

[5] = single agent, Activin A 5 or 10 ng/ml, TGF-β 0.5 or 2 ng/ml

For `Cc1cccc(-c2[nH]c(C(C)(C)C)nc2-c2ccc3nccnc3c2)n1` [SB-525334], which Function [1] is on record?
Its Function is “SB-525334 has been demonstrated to block phosphorylation and Smad2/3 nuclear translocation, and inhibits renal fibrosis by reducing procollagen and PAI-1 expression”.

And the Target [1]?
Its Target is “ALK4, 5, 7”.

Which results are given for `Cc1cccc(-c2nn3c(c2-c2ccnc4ccc(C(N)=O)cc24)CCC3)n1` (atropisomer, axis not shown) [LY-2157299]?
Function [1]: LY-2157299 is now under phase II clinical studies of its anti- carcinoma activities against glioblastoma and hepatocellular carcinoma, and has also been reported that it inhibits the tumor growth in human lung anaplastic carcinoma cells and breast carcinoma cells.; Target [1]: ALK4, 5, 7

For `Cc1cccc(-c2nn(C(=S)Nc3ccccc3)cc2-c2ccnc3ccccc23)n1` [Clone A-83-01, 3-(6-Methylpyridin-2-yl)-N-phenyl-4-(quinolin-4-yl)-1H-pyrazole-1-carbothioamide], which “inhibition of ALK1, ALK2, ALK3 and ALK6” value [2] is on record?
Its value is “weak inhibitor”.

What about the Function [1] of the same molecule?
Its Function is “A-83-01 can inhibit the activities of ALK4, 5 and 7. For other ALK receptors such as ALK1, 2, 3 and 6, A-83-01 showed weak inhibition. A-83- 01 was proved to reduce EMT”.

What about the Target [1] of the same molecule?
Its Target is “Selective inhibitor for ALK4, 5 and 7, and weak effect on ALK1, 2, 3 and 6”.

With `Cc1cccc(-c2[nH]c(C(C)(C)C)nc2-c2ccc3c(c2)OCO3)n1` [SB-505124] as the molecule, how does the Target [1] read?
The Target was “ALK4, 5, 7”.

With `c1ccc(-c2nc3c(c(-n4ccc5cnccc54)n2)CCC3)nc1` [AZ12601011] as the molecule, how does the targets [3] read?
The targets was “targets ALK4 and ALK7 as well as TGFBR1”.

With `Fc1ccc(Cl)cc1-c1nc(Nc2ccncc2)c2nccnc2n1` [SD-208] as the molecule, how does the Function [1] read?
Its Function is “SD-208 inhibits growth and invasiveness and enhances immunogenicity of murine and human glioma cells”.

And the Target [1]?
The Target was “ALK4, 5, 7”.

For “TGF-β: cytokine, inducer of Foxp3 expression and SMAD signaling”, which “SMAD phosphorylation (phospho-SMAD)” value [4, 5] is on record?
Its value is “induced SMAD phosphorylation”.

What about the “Foxp3 induction (Foxp3+ cells)” value (naive CD4+ T cells) of the same molecule?
Its value is “modest up-regulation of Foxp3”.

Which results are given for `c1ccc(-c2cc(-c3c[nH]nc3-c3ccccn3)ccn2)cc1` [GW-6604]?
Function [1]: GW-6604 can prevent matrix deposition and promote hepatocyte regeneration as anti-cancer drug development.; Target [1]: ALK4, 5, 7

B1: Activin A: dimeric member of the TGF-β Superfamily; two Activin βA subunits (protein, UniProt P08476 311-426, looked up)
Inhibin beta A chain: GLECDGKVNICCKKQFFVSFKDIGWNDWIIAPSGYHANYCEGECPSHIAGTSGSSLSFHSTVINHYRMRGHSPFANLKSCCVPTKLRPMSMLYYDDGQNIIKKDIQNMIVEECGCS
modifications: homodimer
For B1, which “SMAD phosphorylation (phospho-SMAD)” value ([4]; combined Activin A and TGF-β treatment) is on record?
The value was “even further activation of the SMAD signaling pathway”.

What about the “SMAD phosphorylation (phospho-SMAD)” value [4, 5] of the same molecule?
Its value is “elevation of phospho-SMAD”.

What about the “Foxp3+ T cell induction” value (naive CD4+ T cells; combined treatment with Activin and TGF-β) of the same molecule?
The value was “synergistic promotion of Foxp3+ T cell induction”.

What about the “Foxp3 induction (Foxp3+ cells)” value (naive CD4+ T cells) of the same molecule?
Its value is “comparable population of Foxp3+ cells”.
